Patent US6608086B2, “Dihydropyridines and new uses thereof” (Synaptic Pharmaceutical Corporation, priority 1993, dated 2003)
Counter-ions that a name gives are not always drawn. Like-named read-outs stand apart in the source and are kept apart here.

Legend:
[1] = biological target: T1, α1C Human Adrenergic Receptor (Homo sapiens, UniProt P35348); assay: Radioligand binding, [3H]prazosin, cloned human α1C adrenergic receptor
T1 construct: The entire coding region of α1C (1401 bp); expressed in transfected cells
T1 sequence (P35348 1-466): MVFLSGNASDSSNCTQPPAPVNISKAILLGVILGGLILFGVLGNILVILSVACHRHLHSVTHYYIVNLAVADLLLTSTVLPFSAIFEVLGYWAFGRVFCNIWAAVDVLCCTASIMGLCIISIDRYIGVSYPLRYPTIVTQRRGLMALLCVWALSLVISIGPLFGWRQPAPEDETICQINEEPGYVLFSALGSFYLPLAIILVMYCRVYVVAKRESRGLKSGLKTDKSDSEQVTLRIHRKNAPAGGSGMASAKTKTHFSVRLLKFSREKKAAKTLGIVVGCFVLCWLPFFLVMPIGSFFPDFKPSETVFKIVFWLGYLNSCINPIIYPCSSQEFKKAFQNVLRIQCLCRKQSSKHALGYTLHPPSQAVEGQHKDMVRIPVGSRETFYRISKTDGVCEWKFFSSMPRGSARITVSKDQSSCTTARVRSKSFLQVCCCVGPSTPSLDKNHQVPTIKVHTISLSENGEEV
In short: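 Antagonist radioligand [3H]prazosin at 0.5 nM labels human α1C receptors in stably transfected LM(tk−) cell membranes over 20 min at 37° C. Phentolamine (10 μM) gives nonspecific binding.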

[2] = biological target: T2, α2A receptor (Homo sapiens, UniProt P08913); assay: Competition binding, [3H]rauwolscine, human α2A receptor
T2 construct: host or cells: LM(tk-) cells, line L-α2A
T2 sequence (P08913 1-465): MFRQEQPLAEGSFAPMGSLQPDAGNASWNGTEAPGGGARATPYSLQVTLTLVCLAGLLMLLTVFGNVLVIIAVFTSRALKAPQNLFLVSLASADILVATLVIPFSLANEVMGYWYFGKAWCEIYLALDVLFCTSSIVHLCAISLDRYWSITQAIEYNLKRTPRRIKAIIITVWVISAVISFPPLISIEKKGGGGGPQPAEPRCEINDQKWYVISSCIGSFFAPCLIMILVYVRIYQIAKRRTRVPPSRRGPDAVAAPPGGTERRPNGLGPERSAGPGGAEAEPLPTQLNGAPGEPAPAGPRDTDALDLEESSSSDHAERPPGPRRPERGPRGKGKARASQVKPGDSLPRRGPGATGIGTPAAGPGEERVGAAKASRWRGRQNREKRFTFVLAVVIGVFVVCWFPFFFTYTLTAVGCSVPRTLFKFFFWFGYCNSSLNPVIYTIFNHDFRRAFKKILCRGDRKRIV
In short: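 Lysates of LM(tk−) cells stably expressing human α2A, α2B or α2C receptors in 25 mM glycylglycine pH 7.6. Equilibrium competition against 0.5 nM [3H]rauwolscine, with 10 μM phentolamine defining nonspecific binding. Bound ligand separated by GF/B filtration.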

[3] = biological target: T3, L-type calcium channel (Rattus norvegicus, UniProt P22002); assay: Competition binding of [3H]nitrendipine to membrane fragments of rat cardiac muscle
T3 construct: membrane fragments of rat cardiac muscle; from tissue; host or cells: rat cardiac muscle membranes
T3 sequence (P22002 whole entry, other chains not shown, the tested form may be a part): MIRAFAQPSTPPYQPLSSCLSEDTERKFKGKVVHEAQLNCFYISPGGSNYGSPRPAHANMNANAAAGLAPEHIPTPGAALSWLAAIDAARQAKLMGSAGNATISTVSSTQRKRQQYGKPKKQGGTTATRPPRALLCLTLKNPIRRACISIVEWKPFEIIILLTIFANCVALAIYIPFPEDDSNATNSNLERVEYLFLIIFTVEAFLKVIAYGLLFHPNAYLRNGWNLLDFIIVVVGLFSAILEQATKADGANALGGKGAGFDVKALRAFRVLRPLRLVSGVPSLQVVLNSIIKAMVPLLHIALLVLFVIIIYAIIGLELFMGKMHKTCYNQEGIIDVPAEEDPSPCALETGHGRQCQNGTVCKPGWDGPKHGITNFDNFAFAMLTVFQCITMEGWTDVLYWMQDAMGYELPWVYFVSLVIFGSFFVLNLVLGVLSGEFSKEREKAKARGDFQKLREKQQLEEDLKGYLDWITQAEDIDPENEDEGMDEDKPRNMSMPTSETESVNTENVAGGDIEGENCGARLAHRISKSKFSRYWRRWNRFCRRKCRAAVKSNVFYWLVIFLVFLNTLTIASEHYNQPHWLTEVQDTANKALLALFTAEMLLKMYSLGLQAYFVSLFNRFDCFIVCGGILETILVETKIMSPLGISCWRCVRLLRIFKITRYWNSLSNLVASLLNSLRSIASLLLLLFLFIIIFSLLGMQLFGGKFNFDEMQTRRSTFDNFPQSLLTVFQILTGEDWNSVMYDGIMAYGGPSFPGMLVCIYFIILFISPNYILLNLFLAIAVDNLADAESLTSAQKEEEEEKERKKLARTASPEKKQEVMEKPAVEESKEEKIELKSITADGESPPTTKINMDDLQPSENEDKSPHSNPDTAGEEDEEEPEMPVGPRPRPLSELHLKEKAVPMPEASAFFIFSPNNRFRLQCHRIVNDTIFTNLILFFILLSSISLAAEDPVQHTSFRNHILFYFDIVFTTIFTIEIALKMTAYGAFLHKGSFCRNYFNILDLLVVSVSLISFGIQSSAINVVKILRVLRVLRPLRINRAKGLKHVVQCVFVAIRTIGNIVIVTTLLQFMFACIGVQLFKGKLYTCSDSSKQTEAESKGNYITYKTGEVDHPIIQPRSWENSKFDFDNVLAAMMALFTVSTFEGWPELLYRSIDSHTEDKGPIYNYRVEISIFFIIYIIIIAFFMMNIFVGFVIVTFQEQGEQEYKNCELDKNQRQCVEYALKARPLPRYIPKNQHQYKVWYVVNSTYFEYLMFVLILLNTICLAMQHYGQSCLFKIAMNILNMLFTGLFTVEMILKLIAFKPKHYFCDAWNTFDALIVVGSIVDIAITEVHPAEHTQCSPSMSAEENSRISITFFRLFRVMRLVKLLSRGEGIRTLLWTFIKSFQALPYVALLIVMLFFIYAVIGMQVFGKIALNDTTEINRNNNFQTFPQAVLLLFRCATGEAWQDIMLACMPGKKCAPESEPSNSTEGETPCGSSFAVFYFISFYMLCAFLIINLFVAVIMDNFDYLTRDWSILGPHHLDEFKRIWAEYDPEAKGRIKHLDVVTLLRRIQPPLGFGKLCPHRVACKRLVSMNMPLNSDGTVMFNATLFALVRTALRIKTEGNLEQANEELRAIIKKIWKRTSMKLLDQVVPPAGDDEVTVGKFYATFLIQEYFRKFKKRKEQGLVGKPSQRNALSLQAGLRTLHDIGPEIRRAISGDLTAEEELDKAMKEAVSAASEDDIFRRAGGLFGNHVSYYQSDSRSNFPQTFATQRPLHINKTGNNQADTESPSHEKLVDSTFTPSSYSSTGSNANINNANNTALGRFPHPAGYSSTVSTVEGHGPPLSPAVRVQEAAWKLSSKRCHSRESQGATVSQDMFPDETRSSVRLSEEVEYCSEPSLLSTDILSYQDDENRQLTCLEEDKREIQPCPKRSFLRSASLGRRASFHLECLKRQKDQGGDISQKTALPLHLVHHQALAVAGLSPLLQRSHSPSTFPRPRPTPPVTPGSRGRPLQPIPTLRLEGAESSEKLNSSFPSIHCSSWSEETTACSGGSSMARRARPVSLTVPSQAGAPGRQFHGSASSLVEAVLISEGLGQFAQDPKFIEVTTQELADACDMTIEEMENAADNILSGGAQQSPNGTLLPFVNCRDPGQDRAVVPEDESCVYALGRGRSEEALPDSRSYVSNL
T3 sequence (P54290 25-944 partner limits assumed, other chains not shown): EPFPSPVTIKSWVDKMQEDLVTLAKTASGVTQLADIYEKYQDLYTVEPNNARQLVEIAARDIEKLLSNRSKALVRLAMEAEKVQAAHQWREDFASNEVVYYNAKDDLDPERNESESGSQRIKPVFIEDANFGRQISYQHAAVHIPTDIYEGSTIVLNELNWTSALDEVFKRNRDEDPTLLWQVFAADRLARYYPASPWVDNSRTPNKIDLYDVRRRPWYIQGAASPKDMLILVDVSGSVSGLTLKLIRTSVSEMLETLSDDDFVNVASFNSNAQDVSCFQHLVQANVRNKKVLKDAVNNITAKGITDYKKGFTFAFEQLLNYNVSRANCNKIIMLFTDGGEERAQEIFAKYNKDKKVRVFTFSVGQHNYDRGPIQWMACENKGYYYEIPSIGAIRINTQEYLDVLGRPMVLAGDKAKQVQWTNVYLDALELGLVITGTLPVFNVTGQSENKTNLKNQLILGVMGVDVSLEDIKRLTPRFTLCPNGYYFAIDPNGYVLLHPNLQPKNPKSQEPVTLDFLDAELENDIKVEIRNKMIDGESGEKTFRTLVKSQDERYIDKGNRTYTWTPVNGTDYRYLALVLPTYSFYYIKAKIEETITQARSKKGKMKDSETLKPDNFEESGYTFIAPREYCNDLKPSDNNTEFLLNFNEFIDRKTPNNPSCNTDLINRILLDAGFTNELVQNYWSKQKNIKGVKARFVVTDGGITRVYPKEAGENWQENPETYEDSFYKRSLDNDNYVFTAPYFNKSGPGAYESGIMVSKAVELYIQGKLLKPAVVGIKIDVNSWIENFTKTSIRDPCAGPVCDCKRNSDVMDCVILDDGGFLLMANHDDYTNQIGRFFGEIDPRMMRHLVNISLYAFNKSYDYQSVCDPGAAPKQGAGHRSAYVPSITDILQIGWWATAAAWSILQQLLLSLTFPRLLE
T3 sequence (P54290 945-1091 partner limits assumed, other chains not shown): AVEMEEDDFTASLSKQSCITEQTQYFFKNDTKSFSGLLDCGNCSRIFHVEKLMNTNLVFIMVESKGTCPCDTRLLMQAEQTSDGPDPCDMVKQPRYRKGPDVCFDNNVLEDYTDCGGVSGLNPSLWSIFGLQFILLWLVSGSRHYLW

[4] = cloned human α1C receptor, LM(tk−) cell membranes
[5] = [3H]rauwolscine, human α2A receptor, LM(tk−) cells
[6] = [3H]nitrendipine, rat cardiac muscle membrane fragments, L-type calcium channel
[7] = cloned human α1C receptor, LM(tk−) cell membranes, read-out: pKi alpha-1 1c (converted)
[8] = [3H]rauwolscine, human α2A receptor, LM(tk−) cells, read-out: pKi alpha-2 2a (converted)
[9] = [3H]nitrendipine, rat cardiac muscle membrane fragments, L-type calcium channel, read-out: pKi Ca (converted)
[10] = cloned human receptor, LM(tk-) cell membranes, mean, read-out: PKi alpha-1 1c (converted)
[11] = [3H]rauwolscine, human receptor, LM(tk-) cell lysates, mean, read-out: PKi alpha-2 2a (converted)
[12] = [3H]nitrendipine, rat cardiac muscle membranes, mean, read-out: PKi Ca (converted)

CCOC(=O)C1=C(CNCCCN2CCC(c3ccccc3)(c3ccccc3)CC2)NC(C)=C(C(=O)OC)C1c1ccc([N+](=O)[O-])cc1.Cl.O (stereo not drawn) [Example 90, 3-Ethoxycarbonyl-1,4-dihydro-5-methoxycarbonyl-6-methyl-4-(4-nitro)phenyl-2-(N-(3-(4,4,-diphenylpiperidin-1-yl)propyl)amino)methylpyridine, hydrochloride hydrate]
pKi alpha-1 1c [1, 4]: 7.56 | pKi alpha-2 2a [2, 5]: 6.13 | pKi Ca [3, 6]: 6.63

COC(=O)C1=C(C)NC2=C(C(=O)N(CCCN3CCC(c4ccccc4)(c4ccccc4)CC3)C2)C1c1ccc([N+](=O)[O-])cc1.Cl.O (stereo not drawn) [Example 91, 1,4,7,7-Tetrahydro-3-methoxycarbonyl-6-methyl-5-oxo-4-(4-nitrophenyl)-6-(3-(4,4-diphenylpiperidin-1-yl)) propylpyrrolo[3,4-b]pyridine, hydrochloride hydrate]
pKi alpha-1 1c [1, 4]: 8.04 | pKi alpha-2 2a [2, 5]: 6.06 | pKi Ca [3, 6]: 6.55

CCC1=C(C(N)=O)C(c2ccc([N+](=O)[O-])cc2)C(C(=O)NCCCN2CCC(O)(c3ccccc3)CC2)=CN1CC.Cl.O (stereo not drawn) [Example 101, 5-Carboxamido-1,6-diethyl-1,4-dihydro-3-{N-[3-(4-hydroxy-4-phenylpiperidin-1-yl)propyl]}carboxamido-4-(4-nitrophenyl)pyridine hydrochloride hydrate]
pKi alpha-1 1c [1, 4]: 8.54 | pKi alpha-2 2a [2, 5]: 5.89 | pKi Ca [3, 6]: 3

CCC1=C(C(N)=O)C(c2ccc([N+](=O)[O-])cc2)C(C(=O)NCCCN2CCN(c3ccccc3)CC2)=C(CC)N1 (stereo not drawn) [Example 104, 5-Carboxamido-2,6-diethyl-1,4-dihydro-4-(4-nitrophenyl)-3-{N-[3-(4-phenylpiperazin-1-yl)propyl]}carboxamido-pyridine hydrochloride hydrate]
Ki [1, 7]: 0.00324 µM | Ki [2, 8]: 0.00525 µM | Ki [3, 9]: 1000 µM

CCC1=C(C(N)=O)C(c2ccc([N+](=O)[O-])cc2)C(C(=O)NCCCN2CCC(c3ccccc3)(c3ccccc3)CC2)=C(CC)N1 (stereo not drawn) [Example 120, 5-Carboxamido-2,6-diethyl-1,4-dihydro-4-(4-nitrophenyl)-3-{N-[3-(4,4-diphenylpiperidin-1-yl)propyl]} carboxamidopyridine]
pKi alpha-1 1c [1, 4]: 8.97 | Ki [2, 8]: 0.363 µM | Ki [3, 9]: 1000 µM

CCC1=C(C(N)=O)C(c2ccc([N+](=O)[O-])cc2)C(C(=O)NCCCN2CCC(c3ccccc3)CC2)=C(CC)N1 (stereo not drawn) [Example 121, 5-Carboxamido-2,6-diethyl-1,4-dihydro-4-(4-nitrophenyl)-3-{N-[3-(4-phenylpiperidin-1-yl)propyl]}carboxamidopyridine]
Ki [1, 7]: 0.00132 µM | Ki [2, 8]: 0.363 µM | Ki [3, 9]: 16.6 µM

CCC1=C(C(N)=O)C(c2ccc([N+](=O)[O-])cc2)C(C(=O)NC2CCN(CCc3c[nH]c4ccccc34)CC2)=CN1CC (stereo not drawn) [Example 122, 5-Carboxamido-1,4-dihydro-3-(N-{1-[2-(3-indolyl)ethyl]piperidin-4-yl}) carboxamido-1,6-diethyl-4-(4-nitrophenyl)pyridine]
pKi alpha-1 1c [1, 4]: 7.71 | pKi alpha-2 2a [2, 5]: 6.38 | pKi Ca [3, 6]: 3

CCC1=C(C(N)=O)C(c2ccc([N+](=O)[O-])cc2)C(C(=O)NC2CCN(CCc3c[nH]c4ccccc34)CC2)=CN1CC (stereo not drawn) [Example 123, 5-Carboxamido-1,6-diethyl-1,4-dihydro-3-(N-{1-[2-(3-indolyl)ethyl]piperidin-4-yl}) carboxamide-4-(4-nitrophenyl)pyridine]
pKi alpha-1 1c [1, 4]: 8.3 | pKi alpha-2 2a [2, 5]: 6.03 | pKi Ca [3, 6]: 4.53

COc1ccccc1N1CCN(CCCNC(=O)C2=C(C)NC(C)=C(C(N)=O)C2c2ccc([N+](=O)[O-])cc2)CC1 (stereo not drawn) [Example 124]
Ki [1, 7]: 0.00195 µM | Ki [2, 8]: 0.0224 µM | Ki [3, 9]: 1000 µM

CCC1=C(C(=O)NC)C(c2ccc([N+](=O)[O-])cc2)C(C(=O)NCCCN2CCC(C#N)(c3ccccc3)CC2)=C(CC)N1 (stereo not drawn) [Example 126, 3-{N-[3-(4-Cyano-4-phenylpiperidin-1-yl)propyl]}carboxamido-1,4-dihydro-2,6-diethyl-5-(1-methyl)carboxamido-4-(4-nitrophenyl)pyridine]
pKi alpha-1 1c [1, 4]: 7.95 | pKi alpha-2 2a [2, 5]: 5.33 | pKi Ca [3, 6]: 6.34

CCC1=C(C(N)=O)C(c2ccc([N+](=O)[O-])cc2)C(C(=O)NCCCN2CCC(C(=O)OC)(c3ccccc3)CC2)=C(CCCCN)N1 (stereo not drawn) [Example 166, 2-(4-Aminobutyl)-5-carboxamido-6-ethyl-1,4-dihydro-3-{N-[3-(4-methoxycarbonyl-4-phenylpiperidin-1-yl)propyl]}carboxamido-4-(4-nitrophenyl)pyridine]
Ki [1, 10]: 0.00129 µM | Ki [2, 11]: 1.86 µM | Ki [3, 12]: 132 µM

COC(=O)C1=C(C)NC(CCCCN)=C(C(=O)NCCCN2CCC(c3ccccc3)(c3ccccc3)CC2)C1c1ccc([N+](=O)[O-])cc1 (stereo not drawn) [Example 170, 2-(4-Aminobutyl)-1,4-dihydro-5-methoxycarbonyl-6-methyl-4-(4-nitrophenyl)-3-{N-[3-(4,4-diphenylpiperidin-1-yl)propyl]}carboxamidopyridine]
Ki [1, 10]: 0.00126 µM | Ki [2]: 6.17 µM | Ki ([3]; PKi Ca): 2.4 µM

CCC1=C(C(N)=O)C(c2ccc([N+](=O)[O-])cc2)C(C(=O)NCCCN2CCC(c3ccccc3)(c3ccccc3)CC2)=C(CCCCN)N1 (stereo not drawn) [Example 171, 2-(4-Aminobutyl)-5-carboxamido-6-ethyl-1,4-dihydro-4-(4-nitrophenyl)-3-{N-[3-(4,4-diphenylpiperidin-1-yl)propyl]}carboxamidopyridine]
Ki ([1]; PKi alpha-1 1c, cloned human receptor, LM(tk-) cell membranes, mean): 0.00174 µM | Ki [2, 11]: 1.1 µM | Ki [3, 12]: 18.6 µM

COC(=O)C1(c2ccccc2)CCN(CCCNC(=O)C2=C(CCCCN)NC(C)=C(C(N)=O)C2c2ccc([N+](=O)[O-])cc2)CC1 (stereo not drawn) [Example 177, 2-(4-Aminobutyl)-5-carboxamido-1,4-dihydro-3-{N-[3-(4-methoxycarbonyl-4-phenylpiperidin-1-yl)propyl]}carboxamido-6-methyl-4-(4-nitrophenyl)pyridine]
Ki [1, 10]: 0.00468 µM | Ki [2]: 1.66 µM | Ki ([3]; PKi Ca): 93.3 µM

CCNC(=O)C1=C(CC)NC(CC)=C(C(=O)NCCCN2CCC(C(=O)OCC)(c3ccccc3)CC2)C1c1ccc([N+](=O)[O-])cc1 (stereo not drawn) [Example 182, 2,6-Diethyl-1,4-dihydro-3-{N-[3-(4-ethoxycarbonyl-4-phenylpiperidin-1-yl)propyl]}carboxamido-5-(N-ethyl)carboxamido-4(4-nitrophenyl)pyridine]
Ki [1, 10]: 0.00224 µM | Ki [2]: 2.19 µM | Ki ([3]; PKi Ca): 355 µM

COC(=O)C1(c2ccccc2)CCN(CCCNC(=O)C2=C(COCCN=[N+]=[N-])NC(C)=C(C(N)=O)C2c2ccc([N+](=O)[O-])cc2)CC1 (stereo not drawn) [Example 183, 2-[(2-Azidoethoxy)methyl]-5-carboxamido-1,4-dihydro-3-{N-[3-(4-methoxycarbonyl-4-phenylpiperidin-1-yl)propyl]}carboxamido-6-methyl-4-(4-nitrophenyl)pyridine]
Ki [1, 10]: 0.000851 µM | Ki [2, 11]: 1.05 µM | Ki [3, 12]: 74.1 µM

CCOC(=O)C1(c2ccccc2)CCN(CCCNC(=O)C2=C(COCCN)NC(CC)=C(C(=O)OC)C2c2ccc([N+](=O)[O-])cc2)CC1 (stereo not drawn) [Example 197, 2-[(2-Aminoethoxy)methyl]-3-{N-[3-(4-ethoxycarbonyl-4-phenylpiperidin-1-yl)propyl]}carboxamido-1,4-dihydro-6-ethyl-5-methoxycarbonyl-4-(4-nitrophenyl) pyridine]
Ki [1, 10]: 0.00055 µM | Ki [2]: 1.48 µM | Ki ([3]; PKi Ca): 6.31 µM
